Reference: patent publication EP1885364B1, “HALOGENATED QUINDOLINE DIMERS FOR THE TREATMENT OF CANCER” (Crystax Pharmaceuticals, S.L., priority 2005, dated 2006)

How the values were obtained:
Format in all cases: cell-based
[1] = test system: Jurkat clon E6-1 leukemia; experiment: MTT in vitro cytotoxicity, Jurkat; conditions: Homo sapiens, Jurkat cells, concentrations until 100 µM, incubation until 72 h
Excerpt: (§1) IC50 is the compound concentration at which 50% of a specific cell type die in a standardized assay, and thus a measure of cytotoxicity. Jurkat is a human leukaemia T cell line, GLC-4 is a human small-cell lung-carcinoma cell line and NIH-3T3 is a rat non-cancerous cell line. [drawing 3]
(§2) These compounds have been tested in a greater number of different cell lines. IC50 is the compound concentration at which 50% of a specific cell type die in a standardized assay, and thus a measure of cytotoxicity. Jurkat is a human leukaemia T cell line, GLC-4 is a human small-cell lung-carcinoma cell line, NIH-3T3 is a rat non-cancerous cell line, K-562 is a human chronic myelogenous leukemia cell line, A549 is a human lung carcinoma cell line, RPMI-1788 is a human leukocytes of peripherial blood from healthy […] cell line, MCF-7 is a human breast adenocarcinoma cell line, Capan-2 is a human pancreas adenocarcinoma cell line, Colo320HSR is a human colon carcinoma cell line, SW-837 is a human rectum adenocarcinoma cell line, IM-9 is a human bone marrow myeloma cell line, IMR-32 is a human neuroblastoma cell line and MT-4 is a human mixed heart's and peripheral blood's lymphocytes of patients with T-cell leukemia cell line. Table 2. Biological activities of IIIa-IIIg.
(§3) The in vitro cytotoxicity of the compounds of the present invention was evaluated by colorimetric assays with tetrazol salts (MTT) on Jurkat clon E6-1 leukemia, on GLC-4 clon carcinoma, on K-562 chronic myelogenous leukemia, on A549 lung carcinoma, on RPMI-1788 leukocytes of peripherial blood from healthy […], on MCF-7 breast adenocarcinoma, on Capan-2 pancreas adenocarcinoma, on Colo320HSR colon carcinoma, on SW-837 rectum adenocarcinoma, on IM-9 bone marrow myeloma, on IMR-32 neuroblastoma and on MT-4 mixed heart's and peripheral blood's lymphocytes of patients with T-cell leukemia human cell lines, according to the protocol described by Mosmann et al. (J. Immunol. Methods, 1983,65, 55-63) incorporated herein by reference. In all cases the concentrations used were until 100 µM and times of incubation until 72 h. […] Table 3. Biological activities.

[2] = test system: GLC-4; experiment: MTT in vitro cytotoxicity, GLC-4; conditions: Homo sapiens, GLC4, GLC-4 cells, concentrations until 100 µM, incubation until 72 h
Excerpt: as §1, §2, §3

[3] = test system: NIH-3T3; experiment: Cytotoxicity in non-cancerous cell line NIH-3T3; conditions: NIH3T3; NIH-3T3 non-cancerous cell line
Excerpt: as §1, §2

[4] = test system: K-562 chronic myelogenous leukemia; experiment: MTT in vitro cytotoxicity, K-562; conditions: Homo sapiens, K562, K-562 cells, concentrations until 100 µM, incubation until 72 h
Excerpt: as §2, §3

[5] = test system: A549 lung carcinoma; experiment: MTT in vitro cytotoxicity, A549; conditions: Homo sapiens, A549 cells, concentrations until 100 µM, incubation until 72 h
Excerpt: as §2, §3

[6] = test system: RPMI-1788 leukocytes of peripherial blood from healthy person; experiment: MTT in vitro cytotoxicity, RPMI-1788; conditions: Homo sapiens, RPMI-1788 cells (from healthy person), concentrations until 100 µM, incubation until 72 h
Excerpt: as §2, §3

[7] = test system: MCF-7 breast adenocarcinoma; experiment: MTT in vitro cytotoxicity, MCF-7; conditions: Homo sapiens, MCF7, MCF-7 cells, concentrations until 100 µM, incubation until 72 h
Description: (§4) These compounds have been tested in a greater number of different cell lines. IC50 is the compound concentration at which 50% of a specific cell type die in a standardized assay, and thus a measure of cytotoxicity. […]
(§5) The in vitro cytotoxicity of the compounds of the present invention was evaluated by colorimetric assays with tetrazol salts (MTT) on Jurkat clon E6-1 leukemia, on GLC-4 clon carcinoma, on K-562 chronic myelogenous leukemia, on A549 lung carcinoma, on RPMI-1788 leukocytes of peripherial blood from healthy […], on MCF-7 breast adenocarcinoma, on Capan-2 pancreas adenocarcinoma, on Colo320HSR colon carcinoma, on SW-837 rectum adenocarcinoma, on IM-9 bone marrow myeloma, on IMR-32 neuroblastoma and on MT-4 mixed heart's and peripheral blood's lymphocytes of patients with T-cell leukemia human cell lines, according to the protocol described by Mosmann et al. (J. Immunol. […]

[8] = test system: Capan-2 pancreas adenocarcinoma; experiment: MTT in vitro cytotoxicity, Capan-2; conditions: Homo sapiens, Capan-2 cells, concentrations until 100 µM, incubation until 72 h
Description: as §4, §5

[9] = test system: Colo320HSR colon carcinoma; experiment: MTT in vitro cytotoxicity, Colo320HSR; conditions: Homo sapiens, Colo-320HSR cells, concentrations until 100 µM, incubation until 72 h
Description: as §4, §5

[10] = test system: SW-837 rectum adenocarcinoma; experiment: MTT in vitro cytotoxicity, SW-837; conditions: Homo sapiens, SW837, SW-837 cells, concentrations until 100 µM, incubation until 72 h
Description: as §4, §5

[11] = test system: IM-9 bone marrow myeloma; experiment: MTT in vitro cytotoxicity, IM-9; conditions: Homo sapiens, IM-9 cells, concentrations until 100 µM, incubation until 72 h
Description: as §4, §5

[12] = test system: IMR-32 neuroblastoma; experiment: MTT in vitro cytotoxicity, IMR-32; conditions: Homo sapiens, IMR-32 cells, concentrations until 100 µM, incubation until 72 h
Description: as §4, §5

[13] = test system: MT-4 mixed heart's and peripheral blood's lymphocytes of patients with T-cell leukemia; experiment: MTT in vitro cytotoxicity, MT-4; conditions: Homo sapiens, MT4, MT-4 cells, concentrations until 100 µM, incubation until 72 h
Description: as §4, §5

`O=C(O)c1c2cc(Cl)ccc2nc2c1[nH]c1ccccc12` [IIa] gave an IC50 [1] greater than 25 µM and an IC50 [2] of 15.7 µM.

With `CN(CCCNC(=O)c1c2cc(Cl)ccc2nc2c1[nH]c1ccccc12)CCCNC(=O)c1c2cc(Cl)ccc2nc2c1[nH]c1ccccc12` [IIIa, N,N'-(4-methyl-4-azaheptamethylene)-di-(-2-chloro-10H-indolo[3,2-b]quinoline)-11,11'-arboxamide] the IC50 [1] was 0.09 µM, the IC50 [2] was 0.16 µM and the IC50 [3] was 11.2 µM. The IC50 [4] was 0.65 µM, the IC50 [5] was 12.2 µM and the IC50 [6] was 3 µM. The IC50 [7] was 3.4 µM, the IC50 [8] was 20.1 µM and the IC50 [9] was 0.45 µM. For the same compound, the IC50 [10] was 6.2 µM, the IC50 [11] was 4.6 µM and the IC50 [12] was 0.9 µM. The IC50 [13] was 4.5 µM.

`O=C(O)c1c2cc(Br)ccc2nc2c1[nH]c1ccccc12` [IIc] gave an IC50 [1] greater than 25 µM.

Compound `CN(CCCNC(=O)c1c2cc(Cl)ccc2nc2c1[nH]c1ccccc12)CCCNC(=O)c1c2cc(Br)ccc2nc2c1[nH]c1ccccc12` [IIId, N-[3-[[3-[11-((2-bromo-10H-indolo[3,2-b]quinoline)carbonyl)amino]-propyl]-methylamino]propyl]-2-chloro-10H-indolo[3,2-b]quinoline-11-carboxamide] has an IC50 [1] of 0.6 µM, an IC50 [4] of 5.3 µM and an IC50 [5] of 12.9 µM. It also gave an IC50 [6] of 3.5 µM.

`CN(CCCNC(=O)c1c2cc(F)ccc2nc2c1[nH]c1ccccc12)CCCNC(=O)c1c2cc(F)ccc2nc2c1[nH]c1ccccc12` [IIIb, N,N'-(4-methyl-4-azaheptamethylene)-di-(-2-fluoro-10H-indolo[3,2-b]quinoline)-11,11'-carboxamide] gave an IC50 [1] of 0.5 µM, an IC50 [3] of 64.3 µM and an IC50 [4] of 1.1 µM. For the same compound, the IC50 [5] was 10 µM, the IC50 [6] was 5.3 µM and the IC50 [7] was 4.8 µM. For the same compound, the IC50 [8] was 25.5 µM, the IC50 [9] was 3.2 µM and the IC50 [10] was 17.9 µM. It also gave an IC50 [11] of 7.5 µM, an IC50 [12] of 0.7 µM and an IC50 [13] of 9 µM.

For `CN(CCCNC(=O)c1c2ccccc2nc2c1[nH]c1ccccc12)CCCNC(=O)c1c2ccccc2nc2c1[nH]c1ccccc12` [Ia, reference compound], the IC50 [1] was 0.97 µM, the IC50 [2] was 1.45 µM and the IC50 [3] was 6.77 µM.

Work on `CN(CCCNC(=O)c1c2cc(F)ccc2nc2c1[nH]c1ccccc12)CCCNC(=O)c1c2cc(Cl)ccc2nc2c1[nH]c1ccccc12` [IIIe, N-[3-[[3-[11-((2-chloro-10H-indolo[3,2-b]quinoline)carbonyl)amino]-propyl]-methylamino]propyl]-2-fluoro-10l-l-indolo[3,2-b]quinoline-11-carboxamide] yielded an IC50 [1] of 0.5 µM, an IC50 [4] of 6.1 µM and an IC50 [5] of 11.6 µM. The IC50 [6] was 2.9 µM.

`CN(CCCNC(=O)c1c2ccccc2nc2c1[nH]c1ccccc12)CCCNC(=O)c1c2cc(F)ccc2nc2c1[nH]c1ccccc12` [IIIf, N-[3-[[3-[11-((2-fluoro-10H-indolo[3,2-b]quinoline)carbonyl)amino]-propyl]-methylamino]propyl]-10H-indolo[3,2-b]quinoline-11-carboxamide] gave an IC50 [1] of 0.2 µM, an IC50 [4] of 2.8 µM and an IC50 [5] of 1.6 µM. For the same compound, the IC50 [6] was 1.7 µM.

Work on `CN(CCCNC(=O)c1c2cc(Br)ccc2nc2c1[nH]c1ccccc12)CCCNC(=O)c1c2cc(Br)ccc2nc2c1[nH]c1ccccc12` [IIIc, N,N'-(4-methyl-4-azaheptamethylene)-di-(-2-bromo-10H-indolo[3,2-b]quinoline)-11,11'-carboxamide] yielded an IC50 [1] of 0.8 µM and an IC50 [6] of 9.1 µM.

For `CN(CCCNC(=O)c1c2ccccc2nc2c1[nH]c1ccccc12)CCCNC(=O)c1c2cc(Cl)ccc2nc2c1[nH]c1ccccc12` [IIIg, N-[3-[[3-[11-((2-chloro-10H-indolo[3,2-b]quinoline)carbonyl)amino]-propyl]-methylamino]propyl]-10H-indolo[3,2-b]quinoline-11-carboxamide], the IC50 [1] was 0.7 µM, the IC50 [4] was 5.8 µM and the IC50 [5] was 6.2 µM. The IC50 [6] was 3.2 µM.

For `O=C(O)c1c2cc(F)ccc2nc2c1[nH]c1ccccc12` [IIb], the IC50 [1] was 13 µM and the IC50 [2] was 12 µM.
